Measured values published in patent publication US4749710A, “Immunosuppressive agents” (priority 1985, dated 1988).
Where two headings read alike, the source gives them in different places.

What was measured:
Type in all cases: cell-based
[1] = test system: IgM production by human lymphocytes; assay: Inhibition of IgM production by human lymphocytes in vitro (SAC activation, ELISA); details: 8 days, vehicle control 2.49 ± 0.17
Excerpt: (§1) General Test Description Humoral immunity comprises one of the two major arms of the immune system and generally is beneficial. However, a number of disease states are characterized by a hyperactive immune system responding to self tissue antigens. […] In these diseases it would be important to suppress the humoral immune system.
(§2) In the following studies we used established methods to examine the effect of Vitamin D derivatives on the in vitro production of immunoglobulin (Ig) by human peripheral blood leukocytes (PBL) following polyclonal activation. Immunoglobulin was induced from PBL by co-culturing the PBL with the polyclonal B cell activator Staphylococcus aureus strain Cowan I (SAC) for a period of 8 days. The quantity of Ig produced in the culture supernatants was determined by using an enzyme linked immunosorbent assay (ELISA). The effect of Vitamin D derivatives was determined by comparing the amount of antibody produced in cultures containing Vitamin D derivatives to those cultures containing an appropriate concentration of vehicle (ethanol).
(§3) Solutions of vitamin D derivatives. Stock solutions of vitamin D derivatives were prepared as described previously for the murine CTL experiments.
(§4) INDUCTION OF HUMAN IG SECRETION Human peripheral blood mononuclear leukocytes were prepared from one day old buffy coat preparations obtained from the American Red Cross (Lansing, MI). […] Twenty five ml of this preparation were overlayed onto 25 ml of Ficoll-Paque contained in a 50 ml polypropylene centrifuge tube. After centrifugation at 400×g at 15° C. for 40 min, the cells at the interface of the medium and Ficoll were removed and washed 3 times in 50 ml RPMI medium and centrifuged at 300×g for 10 minutes. After the final centrifugation,the cell pellet was suspended in RPMI medium containing 20% fetal bovine serum (FBS) and 80 μg/ml gentamicin. The number of viable cells was determined by trypan blue exclusion and were then suspended to 2.5×10^6 viable cells per ml in RPMI containing 20% FBS and gentamicin. Human PBL were induced to secrete Ig as follows. One hundred microliters of the PBL suspension and an additional 100 μl of a 1:20,000 (v/v) preparation of SAC suspended in RPMI containing 1% FBS were added to each well of a 96-well microtiter plate. Selected wells were also set up without the addition of SAC to serve as negative controls (spontaneous Ig secretion). Each well then received 20 μl of either the appropriate dilution of Vitamin D derivative in RPMI with 1% ethanol or RPMI with 1% ethanol (vehicle control). The vitamin D derivatives were tested at final concentrations of 10^-5, 10^-6, 10^-7, 10^-8, 10^-9, and 10^-10 M and in all cases the vehicle (ethanol) concentration was 0.1%. All treatments were performed in triplicate. […] The samples were then either assayed immediately or stored at -20° C. until assayed by the ELISA technique described below.
(§5) QUANTITATION OF SECRETED IG (ELISA ASSAY) ELISA plates were prepared for quantitating human IgG and IgM levels in culture supernatants as follows. Affinity purified sheep anti-human IgG and goat anti-human IgM (Cappel, Cochranville, PA) were diluted 1:250 and 1:400 respectively, in carbonate coating buffer (0.05M sodium bicarbonate, 0.05M sodium carbonate, 0.15M sodium chloride). One hundred and fifty microliters of the antibody preparation were added to each well of a 96 well ELISA plate (EIA, Costar). The plates were sealed and incubated overnight at 4° C. and on the following day were washed 3 times with distilled water. Each well then received 350 μl of Dulbecco's PBS containing 1 mg/ml bovine serum albumin (BSA) and 0.5 mg/ml sodium azide. The plates were allowed to incubate for 1 hour at 37° C. and then washed 3 times with Dulbecco's PBS containing 0.5% stock Tween 20 (PBS-Tween) followed by 2 washes with distilled water. The plates were air dried and stored desiccated under a vacuum at 4° C. until use.

[2] = test system: IgG production by human lymphocytes; assay: Inhibition of IgG production by human lymphocytes in vitro (SAC activation, ELISA); details: 8 days, vehicle control 0.78 ± 0.09
Excerpt: as §1, §2, §3, §4, §5

[3] = test system: human cytotoxic T-lymphocyte responses; assay: Inhibition of human CTL responses (mixed leukocyte-tumor cultures, HT-144 melanoma, ^51 Cr release); details: donor I, 0.01% ethanol, effector to target 6:1
Experimental: Human cells for the tests described below were taken from four donors designated I, II, III, and IV in the tables below.
Stock solutions of Vitamin D derivatives were prepared as they were prepared above in the murine tests.
Human cytotoxic T-lymphocytes were generated in mixed leukocyte-tumor cultures by known methods. Specifically, blood from normal volunteer donors was drawn into heparinized syringes, diluted 1:1 with calcium-magnesium free Hanks' balanced salt solution (Ca-Mg free HBSS), and layered over lymphocyte separation medium (Litton Bionetics, Kensington, MD). After centrifugation at 500xg for 20-30 min at room temperature, peripheral blood mononuclear cells were harvested from the interface. The peripheral blood mononuclear leukocytes were centrifuged and resuspended in Ca-Mg free HBSS and were subsequently separated from platelets by centrifugation at 500xg through a solution of 20% sucrose and 1% human AB serum in Ca-Mg free HBSS. The cells were washed once and finally resuspended in tissue culture medium. […] Cells to be used as stimulator cells in mixed leukocyte-tumor cultures were irradiated with 10,000 rads of gamma irradiation to preclude proliferation in culture. Mixed leukocyte-tumor cell cultures were established in 16 mm tissue culture wells at a final volume of 1.5 ml per well containing 2×10^6 peripheral blood mononuclear leukocytes and 5×10^4 irradiation-inactivated stimulator cells. In order to prevent the generation of nonspecific cytotoxic cells in these cultures, hydrocortisone sodium succinate was added to each culture at a final concentration of 1×10^-5 M. Mixed leukocyte-tumor cultures were incubated for 6 days in a humidified atmosphere of 5% CO2 in air.
Labelled target cells were washed free of unbound isotope by 3 serial washes in tissue culture medium and were finally resuspended at a concentration of 5×10^4 cells per ml.
Assays of human cytotoxic T-lymphocytes were done by known methods. Specifically, one-tenth ml aliquots of ^51 Cr-labelled target cell suspension were added to "half area" microtest plates and were incubated at 37° C. for 18 hours in a humidified atmosphere of 5% CO2 in air to permit the cells to adhere and spread on the floor of each well. Culture medium was then aspirated from each well and was replaced with 0.1 ml of tissue culture medium containing cells harvested from mixed leukocyte-tumor cultures which had been processed as described for murine mixed leukocute cultures, above. Control wells for measurement of spontaneous ^51 Cr release received medium without effector cells and wells for measurement of maximal releasable ^51 Cr received 0.1 ml of 2% sodium dodecyl sulfate in distilled water. After overnight incubation at 37° in a humidified atmosphere of 5% CO2 in air, 0.05 ml of cell-free supernatant was withdrawn from each well and the amount of released ^51 Cr was quantitated using a gamma spectrometer. The percentage of specific ^51 Cr release (CTL activity) and the percent inhibition of CTL activity were calculated with the same formulas used above for the murine CTL assay.
Tests conducted on human cytotoxic T-lymphocyte responses are reported as the mean±standard error of the mean from triplicate ^51 Cr release determinations on pooled cells from duplicate control or test cultures.

In the case of `C=C1/C(=C/C=C2\CCC[C@]3(C)[C@@H]([C@H](C)CCCC(C)(C)O)CC[C@@H]23)C[C@@H](O)C[C@@H]1O` [5,6-trans-1α,25-(OH)2 --D3, 1α,25-Dihydroxy-5,6-trans-cholecalciferol], the “IgM μg per culture (x ± S.E.M.)” value ([1]; 1 × 10^-6 molar) is reported as “undetectable”, the “IgM μg per culture (x ± S.E.M.)” value ([1]; 1 × 10^-7 molar) is reported as 0.04 ± 0.01 μg per culture and the “IgM μg per culture (x ± S.E.M.)” value ([1]; 1 × 10^-8 molar) is reported as 0.50 ± 0.21 μg per culture. For the same compound, the “IgM μg per culture (x ± S.E.M.)” value ([1]; 1 × 10^-9 molar) was 2.36 ± 0.27 μg per culture, the “IgM μg per culture (x ± S.E.M.)” value ([1]; 1 × 10^-10 molar) was 2.79 ± 0.18 μg per culture and the “IgG μg per culture (x ± S.E.M.)” value ([2]; 1 × 10^-6 molar) was “undetectable”. The “IgG μg per culture (x ± S.E.M.)” value ([2]; 1 × 10^-7 molar) was 0.01 ± 0.001 μg per culture, the “IgG μg per culture (x ± S.E.M.)” value ([2]; 1 × 10^-8 molar) was 0.21 ± 0.12 μg per culture and the “IgG μg per culture (x ± S.E.M.)” value ([2]; 1 × 10^-9 molar) was 0.29 ± 0.05 μg per culture. For the same compound, the “IgG μg per culture (x ± S.E.M.)” value ([2]; 1 × 10^-10 molar) was 0.55 ± 0.16 μg per culture, the inhibition at 1 µM ([3]; Homo sapiens, T-lymphocyte, read-out: Inhibition of CTL activity (%), Test 1, 1 × 10^-6 molar) was 62% and the inhibition at 0.1 µM ([3]; Homo sapiens, T-lymphocyte, read-out: Inhibition of CTL activity (%), Test 1, 1 × 10^-7 molar) was 62%. The inhibition at 10 µM ([3]; Homo sapiens, T-lymphocyte, read-out: Inhibition of CTL activity (%), Test 2, 1 × 10^-5 molar) was 60%, the inhibition at 1 µM ([3]; Homo sapiens, T-lymphocyte, read-out: Inhibition of CTL activity (%), Test 2, 1 × 10^-6 molar) was 74% and the “CTL activity (% specific ^51 Cr release)” value ([3]; Test 1, 1 × 10^-6 molar) was 20 ± 2 % specific ^51 Cr release. For the same compound, the “CTL activity (% specific ^51 Cr release)” value ([3]; Test 1, 1 × 10^-7 molar) was 20 ± 2 % specific ^51 Cr release, the “CTL activity (% specific ^51 Cr release)” value ([3]; Test 2, 1 × 10^-5 molar) was 17 ± 3 % specific ^51 Cr release and the “CTL activity (% specific ^51 Cr release)” value ([3]; Test 2, 1 × 10^-6 molar) was 11 ± 2 % specific ^51 Cr release.
